What was measured:
[1] = system: putative mAR in A172 human glioblastoma cells; conditions: unlabeled DHT as displacer, relative to T-BSA incubated A172 cells
Excerpt: The population histograms depict the frequency distribution of the cells labeled with a fluorescently tagged, BSA-conjugated testosterone (Testosterone-BSA-FITC, abbreviated as T-BSA), or T-BSA in the presence of unlabeled DHT, serving as the “displacer”. […] Also note that the x-axis is on a log scale.

[2] = system: A172 human glioblastoma cell line; experiment: cells; conditions: A 172, read-out: reduction in cell viability (calcein fluorescence)
hippocampal HT-22 cells = experiment: glutamate-induced cytotoxicity, Calcein-am assay; format: cell-based
C6 glioma cells = experiment: salinomycin sensitivity, cell viability by Calcein-am assay; format: cell-based; conditions: 10 microM TBSA, 48 hrs, leftward shift of the concentration response
Procedure: C6 glioma cells were treated with increasing concentrations of the cancer therapeutic, salinamycin, a drug with a high profile of selectivity for cancer stem cells. […] The data are presented as a percentage of cell viability seen in non-TBSA/salinamycin treated cells. The group labeled as Triton-X serves as our cell death-inducing control.

[3] = system: Temozolomide-resistant T98g human glioblastoma cells; experiment: sensitivity to ionizing radiation, Calcein-am assay; format: cell-based
[4] = system: A172 human glioblastoma cells; experiment: as above; format: cell-based; conditions: total dose of 5 Gy at 6.3 Gy/min, 6 hrs after radiation
Procedure: Cell viability was measured using the Calcein-am assay following 6 hrs after the administration of the dose of ionizing radiation. The data are presented as a percentage of cell viability seen in the non-radiated (black bars) or radiated (checkered bars) in the absence of T-BSA.

Compound: C[C@]12CCC(=O)C[C@@H]1CC[C@@H]1[C@@H]2CC[C@]2(C)[C@@H](O)CC[C@@H]12 [DHT, Dihydrotestosterone]
- displacement of Testosterone-BSA-FITC (T-BSA) binding, fluorescence intensity [1]: clear leftward shift of fluorescence intensity

Compound: Cn1nnc2c(C(N)=O)ncn2c1=O [TMZ, Temozolomide]
- cytotoxicity at 5000 µM [2]: ~35%

Compound: TBSA: BSA-conjugated testosterone, membrane impermeable androgen, ligand/activator of the membrane androgen receptor (mAR)
- cell viability, by itself (hippocampal HT-22 cells; TBSA alone, Calcein-am assay): had no effect on cell viability
- effect on glutamate-induced cell death (hippocampal HT-22 cells; TBSA plus glutamate): protected against glutamate-induced cytotoxicity
- effect on sensitivity to salinamycin (concentration response of cell viability) (C6 glioma cells): increased the sensitivity of the cells to salinamycin
- sensitization to ionizing radiation (cell viability) ([3]; 5 Gy, 100 nM-40 microM TBSA, 6 hr or 24 hr post radiation): ineffective at sensitizing the cells to ionizing radiation
- sensitization to ionizing radiation (cell viability) ([3]; 10 Gy): effective at sensitizing these cells to ionizing radiation
- lowest concentration at which the sensitizing effect was noted ([3]; 20 Gy): 1 µM
- sensitization to ionizing radiation (cell viability) [4]: enhanced the sensitivity of the A172 glioblastoma cells to the cytotoxic effects of ionizing radiation
